Measurements published in patent US20250002507A1, “7,8-DIHYDRO-5H-1,6-NAPHTHYRIDINE DERIVATIVES AS POSITIVE ALLOSTERIC MODULATORS OF THE MUSCARINIC ACETYLCHOLINE RECEPTOR M4 FOR TREATING NEUROLOGICAL AND PSYCHIATRIC DISORDERS” (Vanderbilt University, priority 2021, published 2025).

Target: T1, Human M4 (Homo sapiens, UniProt P08173)
T1 construct: expressed in transfected cells
T1 sequence (P08173 1-479): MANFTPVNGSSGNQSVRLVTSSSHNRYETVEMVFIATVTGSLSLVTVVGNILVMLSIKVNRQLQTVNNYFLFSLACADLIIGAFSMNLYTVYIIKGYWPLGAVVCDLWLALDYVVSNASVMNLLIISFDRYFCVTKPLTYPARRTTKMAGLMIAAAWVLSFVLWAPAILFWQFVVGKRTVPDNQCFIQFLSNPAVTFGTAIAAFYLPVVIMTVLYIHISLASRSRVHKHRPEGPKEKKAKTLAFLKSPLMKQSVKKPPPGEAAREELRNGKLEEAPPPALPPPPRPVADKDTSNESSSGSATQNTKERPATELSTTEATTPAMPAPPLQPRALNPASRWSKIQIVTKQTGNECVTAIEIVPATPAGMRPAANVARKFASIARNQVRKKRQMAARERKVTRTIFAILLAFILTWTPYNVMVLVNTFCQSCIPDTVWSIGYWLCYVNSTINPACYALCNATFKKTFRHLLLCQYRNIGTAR
Test: mAChR M4 cell-based functional assay (calcium flux, potentiation of EC20 acetylcholine response), hM4-Gqi5 CHO-K1 cells
Settings: Table 3; for Emax at 30 µM: CHO-K1, Human M4, % ACh maximum at 30 μM, read-out: Emax (% ACh maximum at 30 μM); for EC50: potentiation of EC20 acetylcholine response, calcium flux, CHO-K1 cells, read-out: Human M4 EC50
Outline: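 Positive allosteric modulation was scored as a concentration-dependent rise in the response to an EC20 dose of acetylcholine, added 144 s after the compound. Human M4-Gqi5 CHO-K1 cells carried Fluo-4 dye, and compounds ran as 11-point, 3-fold dilution series. EC50 and Emax came from four-parameter logistic fits of the FDSS fluorescence-ratio traces.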

Row | Compound | Emax at 30 µM | EC50
1 | Cc1c(N2CCc3ncc(-c4cnn(C5CCCCC5)c4)cc3C2)nn2c(C(F)(F)F)nnc2c1C [Compound 253, 3-(1-cyclohexyl-1H-pyrazol-4-yl)-6-(7,8-dimethyl-3-(trifluoromethyl)-[1,2,4]triazolo[4,3-b]pyridazin-6-yl)-5,6,7,8-tetrahydro-1,6-naphthyridine] | 42% | 1690 nM
2 | Cc1c(N2CCc3ncc(-c4ccn(C)n4)cc3C2)nn2c(C(F)(F)F)nnc2c1C [Compound 254, 6-(7,8-dimethyl-3-(trifluoromethyl)-[1,2,4]triazolo[4,3-b]pyridazin-6-yl)-3-(1-methyl-1H-pyrazol-3-yl)-5,6,7,8-tetrahydro-1,6-naphthyridine] | 76% | 494 nM
3 | Cc1c(N2CCc3ncc(-c4ccc(C5CC5)nc4)cc3C2)nn2c(C(F)(F)F)nnc2c1C [Compound 255, 3-(6-cyclopropylpyridin-3-yl)-6-(7,8-dimethyl-3-(trifluoromethyl)-[1,2,4]triazolo[4,3-b]pyridazin-6-yl)-5,6,7,8-tetrahydro-1,6-naphthyridine] | 62% | 602 nM
4 | Cc1ccc(-c2cnc3c(c2)CN(c2nn4c(C(F)(F)F)nnc4c(C)c2C)CC3)cn1 [Compound 256, 6-(7,8-dimethyl-3-(trifluoromethyl)-[1,2,4]triazolo[4,3-b]pyridazin-6-yl)-3-(6-methylpyridin-3-yl)-5,6,7,8-tetrahydro-1,6-naphthyridine] | 78% | 250 nM
5 | Cc1c(N2CCc3ncc(-c4cccnc4)cc3C2)nn2c(C(F)(F)F)nnc2c1C [Compound 257, 6-(7,8-dimethyl-3-(trifluoromethyl)-[1,2,4]triazolo[4,3-b]pyridazin-6-yl)-3-(pyridin-3-yl)-5,6,7,8-tetrahydro-1,6-naphthyridine] | 78% | 218 nM
6 | COc1ccc(-c2cnc3c(c2)CN(c2nn4c(C(F)(F)F)nnc4c(C)c2C)CC3)cn1 [Compound 258, 6-(7,8-dimethyl-3-(trifluoromethyl)-[1,2,4]triazolo[4,3-b]pyridazin-6-yl)-3-(6-methoxypyridin-3-yl)-5,6,7,8-tetrahydro-1,6-naphthyridine] | 77% | 578 nM
7 | Cc1c(N2CCc3ncc(-c4ccc(C(F)(F)F)nc4)cc3C2)nn2c(C(F)(F)F)nnc2c1C [Compound 259, 6-(7,8-dimethyl-3-(trifluoromethyl)-[1,2,4]triazolo[4,3-b]pyridazin-6-yl)-3-(6-(trifluoromethyl)pyridin-3-yl)-5,6,7,8-tetrahydro-1,6-naphthyridine] | 55% | 1450 nM
8 | Cc1c(N2CCc3ncc(OCC4COCCO4)cc3C2)nn2cnnc2c1C (stereo not shown) [Compound 260, 3-((1,4-dioxan-2-yl)methoxy)-6-(7,8-dimethyl-[1,2,4]triazolo[4,3-b]pyridazin-6-yl)-5,6,7,8-tetrahydro-1,6-naphthyridine] | 84% | 7670 nM
9 | Cc1c(N2CCc3ncc(OCC4CC4)cc3C2)nn2cnnc2c1C [Compound 261, 3-(cyclopropylmethoxy)-6-(7,8-dimethyl-[1,2,4]triazolo[4,3-b]pyridazin-6-yl)-5,6,7,8-tetrahydro-1,6-naphthyridine] | 90% | 331 nM
10 | Cc1c(N2CCc3ncc(OCC4COC4)cc3C2)nn2cnnc2c1C [Compound 262, 6-(7,8-dimethyl-[1,2,4]triazolo[4,3-b]pyridazin-6-yl)-3-(oxetan-3-ylmethoxy)-5,6,7,8-tetrahydro-1,6-naphthyridine] | 82% | 1580 nM
11 | Cc1c(N2CCc3ncc(OCC4CC(F)(F)C4)cc3C2)nn2cnnc2c1C [Compound 263, 3-((3,3-difluorocyclobutyl)methoxy)-6-(7,8-dimethyl-[1,2,4]triazolo[4,3-b]pyridazin-6-yl)-5,6,7,8-tetrahydro-1,6-naphthyridine] | 79% | 502 nM
12 | Cc1c(N2CCc3ncc(OCC4CCOC4)cc3C2)nn2cnnc2c1C (stereo not shown) [Compound 264, 6-(7,8-dimethyl-[1,2,4]triazolo[4,3-b]pyridazin-6-yl)-3-((tetrahydrofuran-3-yl)methoxy)-5,6,7,8-tetrahydro-1,6-naphthyridine] | 82% | 1220 nM
13 | Cc1c(N2CCc3ncc(OCc4ccccc4)cc3C2)nn2cnnc2c1C [Compound 265, 3-(benzyloxy)-6-(7,8-dimethyl-[1,2,4]triazolo[4,3-b]pyridazin-6-yl)-5,6,7,8-tetrahydro-1,6-naphthyridine] | 74% | 724 nM
14 | Cc1c(N2CCc3ncc(OCC4CC4(F)F)cc3C2)nn2cnnc2c1C (stereo not shown) [Compound 266, 3-((2,2-difluorocyclopropyl)methoxy)-6-(7,8-dimethyl-[1,2,4]triazolo[4,3-b]pyridazin-6-yl)-5,6,7,8-tetrahydro-1,6-naphthyridine] | 93% | 346 nM
15 | Cc1c(N2CCc3ncc(N4CCCn5nccc54)cc3C2)nn2c(C(F)(F)F)nnc2c1C [Compound 267, 3-(6,7-dihydropyrazolo[1,5-a]pyrimidin-4(5H)-yl)-6-(7,8-dimethyl-3-(trifluoromethyl)-[1,2,4]triazolo[4,3-b]pyridazin-6-yl)-5,6,7,8-tetrahydro-1,6-naphthyridine] | 100% | 37 nM
16 | Cc1c(N2CCc3ncc(C(F)(F)F)cc3C2)nn2c(Cl)nnc2c1C [Compound 268, 6-(3-Chloro-7,8-dimethyl-[1,2,4]triazolo[4,3-b]pyridazin-6-yl)-3-(trifluoromethyl)-7,8-dihydro-5H-1,6-naphthyridine] | 95% | 143 nM
17 | Cc1c(N2Cc3cc(C(F)(F)F)cnc3C(C)(C)C2)nn2cnnc2c1C [Compound 269, 6-(7,8-Dimethyl-[1,2,4]triazolo[4,3-b]pyridazin-6-yl)-8,8-dimethyl-3-(trifluoromethyl)-5,6,7,8-tetrahydro-1,6-naphthyridine] | 42% | 1670 nM
18 | COc1nnc2c(C)c(C)c(N3CCc4ncc(C(F)(F)F)cc4C3)nn12 [Compound 270, 6-(3-Methoxy-7,8-dimethyl-[1,2,4]triazolo[4,3-b]pyridazin-6-yl)-3-(trifluoromethyl)-7,8-dihydro-5H-1,6-naphthyridine] | 97% | 168 nM
19 | Cc1c(N2CCc3ncc(N4CCOCC4)cc3C2)nn2c(C(F)(F)F)nnc2c1C [Compound 271, 4-(6-(7,8-dimethyl-3-(trifluoromethyl)-[1,2,4]triazolo[4,3-b]pyridazin-6-yl)-5,6,7,8-tetrahydro-1,6-naphthyridin-3-yl)morpholine] | 89% | 264 nM
20 | Cc1c(N2CCc3ncc(NC4CCCC4)cc3C2)nn2c(C(F)(F)F)nnc2c1C [Compound 272, N-cyclopentyl-6-(7,8-dimethyl-3-(trifluoromethyl)-[1,2,4]triazolo[4,3-b]pyridazin-6-yl)-5,6,7,8-tetrahydro-1,6-naphthyridin-3-amine] | 87% | 831 nM
21 | Cc1c(N2CCc3ncc(N4CCC5OCCCC5C4)cc3C2)nn2c(C(F)(F)F)nnc2c1C (stereo not shown) [Compound 273, 6-(6-(7,8-dimethyl-3-(trifluoromethyl)-[1,2,4]triazolo[4,3-b]pyridazin-6-yl)-5,6,7,8-tetrahydro-1,6-naphthyridin-3-yl)octahydro-2H-pyrano[3,2-c]pyridine] | 83% | 816 nM
22 | Cc1c(N2CCc3ncc(N4CCC5(CC4)COC5)cc3C2)nn2c(C(F)(F)F)nnc2c1C [Compound 274, 7-(6-(7,8-dimethyl-3-(trifluoromethyl)-[1,2,4]triazolo[4,3-b]pyridazin-6-yl)-5,6,7,8-tetrahydro-1,6-naphthyridin-3-yl)-2-oxa-7-azaspiro[3.5]nonane] | 65% | 3280 nM
23 | Cc1c(N2CCc3ncc(N4CCCC4)cc3C2)nn2c(C(F)(F)F)nnc2c1C [Compound 275, 6-(7,8-dimethyl-3-(trifluoromethyl)-[1,2,4]triazolo[4,3-b]pyridazin-6-yl)-3-(pyrrolidin-1-yl)-5,6,7,8-tetrahydro-1,6-naphthyridine] | 74% | 933 nM
24 | Cc1c(N2CCc3ncc(N4CCN(C)CC4)cc3C2)nn2c(C(F)(F)F)nnc2c1C [Compound 276, 6-(7,8-dimethyl-3-(trifluoromethyl)-[1,2,4]triazolo[4,3-b]pyridazin-6-yl)-3-(4-methylpiperazin-1-yl)-5,6,7,8-tetrahydro-1,6-naphthyridine] | 65% | 1970 nM
25 | Cc1c(N2CCc3ncc(Oc4ccccc4F)cc3C2)nn2c(C(F)(F)F)nnc2c1C [Compound 277, 6-(7,8-dimethyl-3-(trifluoromethyl)-[1,2,4]triazolo[4,3-b]pyridazin-6-yl)-3-(2-fluorophenoxy)-5,6,7,8-tetrahydro-1,6-naphthyridine] | 85% | 392 nM
26 | Cc1c(N2CCc3ncc(Oc4cccc(F)c4)cc3C2)nn2c(C(F)(F)F)nnc2c1C [Compound 278, 6-(7,8-dimethyl-3-(trifluoromethyl)-[1,2,4]triazolo[4,3-b]pyridazin-6-yl)-3-(3-fluorophenoxy)-5,6,7,8-tetrahydro-1,6-naphthyridine] | 84% | 832 nM
